Measured values as given in patent US10028960B2, “Pyrimidine compounds as JAK kinase inhibitors” (THERAVANCE BIOPHARMA R&D IP, LLC, priority 2016, dated 2018).
Like-named read-outs stand apart in the source and are kept apart here.

How the values were obtained:
[1] = target: JAK1 (Homo sapiens (Human), UniProt P23458); test: LanthaScreen JAK biochemical assay, JAK1
Experimental: (§1) A panel of four LanthaScreen JAK biochemical assays (JAK1, 2, 3 and Tyk2) were carried in a common kinase reaction buffer (50 mM HEPES, pH 7.5, 0.01% Brij-35, 10 mM MgCl2, and 1 mM EGTA). Recombinant GST-tagged JAK enzymes and a GFP-tagged STAT1 peptide substrate were obtained from Life Technologies.

[2] = target: Tyk2 (Homo sapiens (Human), UniProt P29597); test: LanthaScreen JAK biochemical assay, Tyk2; settings: for Ki: read-out: Tyk 2 (pKi) (converted)
Chain of Tyk2 (P29597 whole entry): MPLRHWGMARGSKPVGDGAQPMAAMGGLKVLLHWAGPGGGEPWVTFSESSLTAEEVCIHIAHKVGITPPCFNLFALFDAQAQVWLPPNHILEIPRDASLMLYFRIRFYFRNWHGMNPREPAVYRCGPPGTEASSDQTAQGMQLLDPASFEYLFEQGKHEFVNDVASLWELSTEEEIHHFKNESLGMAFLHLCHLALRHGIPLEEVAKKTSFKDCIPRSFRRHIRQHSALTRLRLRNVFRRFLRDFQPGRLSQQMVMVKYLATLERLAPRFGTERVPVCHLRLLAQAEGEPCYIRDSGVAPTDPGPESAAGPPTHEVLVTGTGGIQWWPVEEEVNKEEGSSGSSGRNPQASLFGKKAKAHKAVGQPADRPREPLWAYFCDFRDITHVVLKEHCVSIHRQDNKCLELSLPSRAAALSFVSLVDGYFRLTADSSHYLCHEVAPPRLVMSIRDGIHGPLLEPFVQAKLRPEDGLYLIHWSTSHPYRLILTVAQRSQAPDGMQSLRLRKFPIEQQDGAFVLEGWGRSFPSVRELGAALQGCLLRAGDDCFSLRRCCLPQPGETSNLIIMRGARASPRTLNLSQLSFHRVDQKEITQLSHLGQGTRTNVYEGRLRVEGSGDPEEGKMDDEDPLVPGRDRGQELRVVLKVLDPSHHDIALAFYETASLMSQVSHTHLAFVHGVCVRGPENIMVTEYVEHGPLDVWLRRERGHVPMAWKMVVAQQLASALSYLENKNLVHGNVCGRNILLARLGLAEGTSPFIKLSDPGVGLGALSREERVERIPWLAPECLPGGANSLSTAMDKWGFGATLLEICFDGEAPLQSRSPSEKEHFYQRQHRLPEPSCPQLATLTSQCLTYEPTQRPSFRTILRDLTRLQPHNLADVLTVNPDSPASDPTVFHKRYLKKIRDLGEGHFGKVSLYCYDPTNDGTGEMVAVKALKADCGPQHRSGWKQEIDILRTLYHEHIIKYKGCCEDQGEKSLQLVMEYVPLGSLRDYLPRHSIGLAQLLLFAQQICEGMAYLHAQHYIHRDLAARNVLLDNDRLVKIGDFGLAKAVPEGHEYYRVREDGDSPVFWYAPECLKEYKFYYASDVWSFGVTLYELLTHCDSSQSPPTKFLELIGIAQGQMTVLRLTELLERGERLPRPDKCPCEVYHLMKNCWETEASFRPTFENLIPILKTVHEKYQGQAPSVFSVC
Experimental: as §1

[3] = target: JAK2 (Homo sapiens (Human), UniProt O60674); test: LanthaScreen JAK biochemical assay, JAK2; settings: for Ki: read-out: JAK 2 (pKi) (converted)
Chain of JAK2 (O60674 whole entry): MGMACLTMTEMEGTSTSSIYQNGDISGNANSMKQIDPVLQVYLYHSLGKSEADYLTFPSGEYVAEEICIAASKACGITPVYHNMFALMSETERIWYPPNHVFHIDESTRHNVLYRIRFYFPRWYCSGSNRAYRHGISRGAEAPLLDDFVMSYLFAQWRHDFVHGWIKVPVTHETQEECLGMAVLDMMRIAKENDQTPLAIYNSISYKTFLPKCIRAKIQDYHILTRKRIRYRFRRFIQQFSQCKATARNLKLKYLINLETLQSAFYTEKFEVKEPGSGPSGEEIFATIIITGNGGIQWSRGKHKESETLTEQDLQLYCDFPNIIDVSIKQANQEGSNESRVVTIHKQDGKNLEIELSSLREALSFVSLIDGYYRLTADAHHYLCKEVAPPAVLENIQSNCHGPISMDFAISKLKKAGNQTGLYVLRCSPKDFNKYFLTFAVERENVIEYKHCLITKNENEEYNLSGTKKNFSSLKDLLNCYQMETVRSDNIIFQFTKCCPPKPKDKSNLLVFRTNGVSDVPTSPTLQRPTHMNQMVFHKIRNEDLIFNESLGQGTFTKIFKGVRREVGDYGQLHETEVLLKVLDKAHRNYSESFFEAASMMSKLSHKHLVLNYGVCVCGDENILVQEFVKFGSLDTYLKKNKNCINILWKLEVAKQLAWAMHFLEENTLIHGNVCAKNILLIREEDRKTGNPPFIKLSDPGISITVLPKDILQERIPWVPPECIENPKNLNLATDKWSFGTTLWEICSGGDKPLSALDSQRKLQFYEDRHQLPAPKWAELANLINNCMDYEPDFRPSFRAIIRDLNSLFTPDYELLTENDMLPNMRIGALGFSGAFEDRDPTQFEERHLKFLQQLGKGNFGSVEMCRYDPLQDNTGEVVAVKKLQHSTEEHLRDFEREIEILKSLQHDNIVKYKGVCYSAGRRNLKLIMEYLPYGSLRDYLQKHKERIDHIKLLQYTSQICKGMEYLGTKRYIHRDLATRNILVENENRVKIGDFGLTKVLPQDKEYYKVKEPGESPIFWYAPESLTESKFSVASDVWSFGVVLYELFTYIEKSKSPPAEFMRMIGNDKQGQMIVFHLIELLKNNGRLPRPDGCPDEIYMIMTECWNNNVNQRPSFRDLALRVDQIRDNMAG
Experimental: as §1

[4] = target: JAK3 (Homo sapiens (Human), UniProt P52333); test: LanthaScreen JAK biochemical assay, JAK3; settings: for Ki: read-out: JAK 3 (pKi) (converted)
Chain of JAK3 (P52333 whole entry): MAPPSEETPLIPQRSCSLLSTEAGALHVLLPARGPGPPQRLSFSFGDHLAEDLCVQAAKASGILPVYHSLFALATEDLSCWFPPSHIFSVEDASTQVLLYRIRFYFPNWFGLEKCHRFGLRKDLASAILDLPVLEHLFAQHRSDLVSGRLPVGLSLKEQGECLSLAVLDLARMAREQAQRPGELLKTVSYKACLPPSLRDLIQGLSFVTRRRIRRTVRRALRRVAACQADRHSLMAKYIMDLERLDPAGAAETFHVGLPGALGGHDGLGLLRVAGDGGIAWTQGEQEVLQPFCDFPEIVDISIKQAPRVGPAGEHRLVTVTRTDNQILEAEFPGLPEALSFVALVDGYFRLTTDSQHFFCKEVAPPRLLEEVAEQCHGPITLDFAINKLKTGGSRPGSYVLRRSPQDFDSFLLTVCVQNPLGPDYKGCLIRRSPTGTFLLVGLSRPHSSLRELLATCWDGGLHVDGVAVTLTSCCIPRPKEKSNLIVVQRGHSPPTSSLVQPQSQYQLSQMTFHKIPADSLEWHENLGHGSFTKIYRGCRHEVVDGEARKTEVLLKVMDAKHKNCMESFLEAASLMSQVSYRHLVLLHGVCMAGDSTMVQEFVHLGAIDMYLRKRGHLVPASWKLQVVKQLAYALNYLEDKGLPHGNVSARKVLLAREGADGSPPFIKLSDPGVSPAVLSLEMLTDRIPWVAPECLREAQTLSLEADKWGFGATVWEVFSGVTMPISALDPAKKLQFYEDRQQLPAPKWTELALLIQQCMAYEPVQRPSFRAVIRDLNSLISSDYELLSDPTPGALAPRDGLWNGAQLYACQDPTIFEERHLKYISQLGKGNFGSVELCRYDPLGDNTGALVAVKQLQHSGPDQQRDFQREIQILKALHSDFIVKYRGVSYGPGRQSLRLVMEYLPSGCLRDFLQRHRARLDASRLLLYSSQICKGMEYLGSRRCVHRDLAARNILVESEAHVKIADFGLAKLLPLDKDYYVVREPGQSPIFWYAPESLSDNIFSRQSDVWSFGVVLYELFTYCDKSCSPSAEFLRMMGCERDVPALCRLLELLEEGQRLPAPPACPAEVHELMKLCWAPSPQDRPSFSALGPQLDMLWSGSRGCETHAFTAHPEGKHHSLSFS
Experimental: as §1

[5] = test system: IL-13 induced STAT6 phosphorylation in HT-29 human colorectal adenocarcinoma cells; test: Cellular JAK potency assay: inhibition of IL-13 induced STAT6 phosphorylation; format: cell-based; settings: IL-13 induced STAT6 phosphorylation, HT-29 cells; for IC50: Homo sapiens, read-out: HT-29 (pIC50) (converted)
Experimental: The potency of test compounds for inhibition of the JAK-dependent cytokine interleuken-13 (IL-13) was assessed by measuring IL-13 (IL-13, R&D Systems) induced STAT6 phosphorylation in HT-29 human colorectal adenocarcinoma cells (ATCC).
The anti-STAT6 antibody (Cell Signaling Technologies) was conjugated to AlphaScreen acceptor beads (Perkin Elmer), while the anti-pSTAT6 (pTyr641) antibody (Cell Signaling Technologies) was biotinylated using EZ-Link Sulfo-NHS-Biotin (Thermo Scientific).
HT-29 cells were grown at 37° C. in a 5% CO2 humidified incubator in McCoy's 5a Modified medium (ATCC) supplemented with 10% FBS (Hyclone), 100 U/mL penicillin, 100 μg/mL streptomycin (Life Technologies), and 2 mM GlutaMAX (Life Technologies). On day 1 of the assay, cells were seeded at a 7,500 cells/well density in white poly-D-lysine-coated 384-well plates (Corning) with 25 μL medium, and were allowed to adhere overnight in the incubator. On day 2 of the assay, the medium was removed and replaced with 12 μL of assay buffer (Hank's Balanced Salt Solution/HBSS, 25 mM HEPES, and 1 mg/ml bovine serum albumin/BSA) containing dose-responses of test compounds. Compounds were serially diluted in DMSO and then diluted another 1000-fold in media to bring the final DMSO concentration to 0.1%. Cells were incubated with test compounds at 37° C. for 1 h, and followed by the addition of 12 μL of pre-warmed IL-13 (12 ng/ml in assay buffer) for stimulation. After incubating at 37° C. for 30 min, the assay buffer (containing compound and IL-13) was removed, and 10 μL of cell lysis buffer (25 mM HEPES, 0.1% SDS, 1% NP-40, 5 mM MgCl2, 1.3 mM EDTA, 1 mM EGTA, and supplement with Complete Ultra mini protease inhibitors and PhosSTOP from Roche Diagnostics). The plates were shaken at ambient temperature for 30 min before the addition of detection reagents. A mixture of biotin-anti-pSTAT6 and anti-STAT6 conjugated acceptor beads was added first and incubated at ambient temperature for 2 h, followed by the addition of streptavidin conjugated donor beads (Perkin Elmer). After a minimum of 2 h incubation, the assay plates were read on the EnVision plate reader.
Results were expressed as the negative logarithm of the IC50 value, pIC50.

[6] = read-out: JAK 1 (pKi) (converted)

Chain of JAK1 (P23458 whole entry): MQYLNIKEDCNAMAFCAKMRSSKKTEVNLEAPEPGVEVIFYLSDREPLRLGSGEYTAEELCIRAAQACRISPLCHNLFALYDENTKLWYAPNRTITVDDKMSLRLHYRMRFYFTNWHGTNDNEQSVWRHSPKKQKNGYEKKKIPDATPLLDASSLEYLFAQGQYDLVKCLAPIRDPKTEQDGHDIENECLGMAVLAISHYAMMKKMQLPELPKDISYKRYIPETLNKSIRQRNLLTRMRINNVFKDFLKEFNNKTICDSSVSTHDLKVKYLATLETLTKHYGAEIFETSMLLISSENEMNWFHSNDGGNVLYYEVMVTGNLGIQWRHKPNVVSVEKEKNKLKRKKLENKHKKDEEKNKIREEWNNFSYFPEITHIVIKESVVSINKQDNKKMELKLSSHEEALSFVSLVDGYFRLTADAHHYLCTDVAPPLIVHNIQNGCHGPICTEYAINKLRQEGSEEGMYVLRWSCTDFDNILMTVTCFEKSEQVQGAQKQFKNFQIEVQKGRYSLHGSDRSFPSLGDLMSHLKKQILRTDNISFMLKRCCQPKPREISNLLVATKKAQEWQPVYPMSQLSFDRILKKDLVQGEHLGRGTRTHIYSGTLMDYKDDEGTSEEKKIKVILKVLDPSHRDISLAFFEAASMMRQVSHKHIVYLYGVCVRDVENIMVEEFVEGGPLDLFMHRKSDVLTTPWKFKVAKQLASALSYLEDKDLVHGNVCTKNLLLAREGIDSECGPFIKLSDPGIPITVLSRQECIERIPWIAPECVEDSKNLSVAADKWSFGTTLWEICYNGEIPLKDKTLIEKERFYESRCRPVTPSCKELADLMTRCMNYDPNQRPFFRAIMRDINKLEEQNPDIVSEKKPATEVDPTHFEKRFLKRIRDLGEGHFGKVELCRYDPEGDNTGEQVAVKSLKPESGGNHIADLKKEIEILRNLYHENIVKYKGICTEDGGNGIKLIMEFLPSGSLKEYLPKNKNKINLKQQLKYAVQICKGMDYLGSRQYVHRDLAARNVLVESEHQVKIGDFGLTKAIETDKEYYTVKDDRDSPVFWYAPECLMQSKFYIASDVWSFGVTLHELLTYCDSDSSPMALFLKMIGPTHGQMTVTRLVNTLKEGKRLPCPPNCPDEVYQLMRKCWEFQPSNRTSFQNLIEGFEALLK

Structure (SMILES)	JAK 1 (pKi) [1]	Tyk 2 (pKi) [2]	JAK 2 (pKi) [3]	JAK 3 (pKi) [4]	HT-29 (pIC50) [5]	Ki [1, 6] [nM]	Ki [2] [nM]	Ki [3] [nM]	Ki [4] [nM]	IC50 [5] [nM]	Ki [1] [nM]
COc1cc(Nc2cc(CO)[nH]n2)nc(N(C)[C@@H]2C[C@H]3CCC[C@@H](C2)N3S(=O)(=O)c2cccnc2)n1 [Example 1-15, (3-((6-methoxy-2-(methyl((1R,3s,5S)-9-(pyridin-3-ylsulfonyl)-9-azabicyclo[3.3.1]nonan-3-yl)amino)pyrimidin-4-yl)amino)-1H-pyrazol-5-yl)methanol]	B (B represents a pKi value between 9 and 10 (Ki between 1 nM and 0.1 nM))	B (B represents a pKi value between 9 and 10 (Ki between 1 nM and 0.1 nM))	A (A represents a pKi value≥10 (Ki≤0.1 nM))	C (C represents a pKi value between 8 and 9 (Ki between 10 nM and 1 nM))	B (B represents a pIC50 value between 6.7 and 7.5 (IC50 between 200 nM and 32 nM))	–	–	–	–	–	–
COc1cc(Nc2cc(CO)[nH]n2)nc(N(C)[C@@H]2C[C@H]3CCC[C@@H](C2)N3C(=O)OCC(C)C)n1 [Example 8, Isobutyl (1R,3s,5S)-3-((4-((5-(hydroxymethyl)-1H-pyrazol-3-yl)amino)-6-methoxypyrimidin-2-yl)(methyl)amino)-9-azabicyclo[3.3.1]nonane-9-carboxylate]	–	–	–	–	–	0.1 to 1	0.1 to 1	0.1 to 1	1 to 10	31.6 to 200	–
COc1cc(Nc2cc(CO)[nH]n2)nc(N(C)[C@@H]2C[C@H]3CCC[C@@H](C2)N3S(=O)(=O)c2ccccc2)n1 [Example 1-16, (3-((6-methoxy-2-(methyl((1R,3s,5S)-9-(phenylsulfonyl)-9-azabicyclo[3.3.1]nonan-3-yl)amino)pyrimidin-4-yl)amino)-1H-pyrazol-5-yl)methanol]	B (B represents a pKi value between 9 and 10 (Ki between 1 nM and 0.1 nM))	B (B represents a pKi value between 9 and 10 (Ki between 1 nM and 0.1 nM))	B (B represents a pKi value between 9 and 10 (Ki between 1 nM and 0.1 nM))	C (C represents a pKi value between 8 and 9 (Ki between 10 nM and 1 nM))	B (B represents a pIC50 value between 6.7 and 7.5 (IC50 between 200 nM and 32 nM))	–	–	–	–	–	–
COc1cc(Nc2cc(CO)[nH]n2)nc(N(C)[C@@H]2C[C@H]3CCC[C@@H](C2)N3C(=O)C(F)F)n1 [Example 9, 2,2-difluoro-1-((1R,3s,5S)-3-((4-((5-(hydroxymethyl)-1H-pyrazol-3-yl)amino)-6-methoxypyrimidin-2-yl)(methyl)amino)-9-azabicyclo[3.3.1]nonan-9-yl)ethan-1-one]	–	–	–	–	–	0.1 to 1	0.1 to 1	0.1 to 1	10 to 31.6	–	–
COc1cc(Nc2cc(CO)[nH]n2)nc(N(C)[C@@H]2C[C@H]3CCC[C@@H](C2)N3Cc2cncc(C#N)c2)n1 [Example 7, 5-(((1R,3s,5S)-3-((4-((5-(hydroxymethyl)-1H-pyrazol-3-yl)amino)-6-methoxypyrimidin-2-yl)(methyl)amino)-9-azabicyclo[3.3.1]nonan-9-yl)methyl)nicotinonitrile]	A (A represents a pKi value≥10 (Ki≤0.1 nM))	–	A (A represents a pKi value≥10 (Ki≤0.1 nM))	–	–	–	0.1 to 1	–	0.1 to 1	31.6 to 200	–
COc1cc(Nc2cc(CO)[nH]n2)nc(N(C)[C@@H]2C[C@H]3CCC[C@@H](C2)N3CCC#N)n1 [Example 2-5, 3-((1R,3s,5S)-3-((4-((5-(hydroxymethyl)-1H-pyrazol-3-yl)amino)-6-methoxypyrimidin-2-yl)(methyl)amino)-9-azabicyclo[3.3.1]nonan-9-yl)propanenitrile]	B (B represents a pKi value between 9 and 10 (Ki between 1 nM and 0.1 nM))	C (C represents a pKi value between 8 and 9 (Ki between 10 nM and 1 nM))	B (B represents a pKi value between 9 and 10 (Ki between 1 nM and 0.1 nM))	D (D represents a pKi value between 7.5 and 8 (Ki between 31.6 nM and 10 nM))	–	–	–	–	–	–	–
COc1cc(Nc2cc(CO)[nH]n2)nc(N(C)[C@@H]2C[C@H]3CCC[C@@H](C2)N3S(=O)(=O)N2CCCC2)n1 [Example 1-13, (3-((6-methoxy-2-(methyl((1R,3s,5S)-9-(pyrrolidin-1-ylsulfonyl)-9-azabicyclo[3.3.1]nonan-3-yl)amino)pyrimidin-4-yl)amino)-1H-pyrazol-5-yl)methanol]	A (A represents a pKi value≥10 (Ki≤0.1 nM))	B (B represents a pKi value between 9 and 10 (Ki between 1 nM and 0.1 nM))	A (A represents a pKi value≥10 (Ki≤0.1 nM))	B (B represents a pKi value between 9 and 10 (Ki between 1 nM and 0.1 nM))	A (A represents a pIC50 value≥7.5 (IC50≤32 nM))	–	–	–	–	–	–
COc1cc(Nc2cc(CO)[nH]n2)nc(N(C)[C@@H]2C[C@H]3CCC[C@@H](C2)N3S(=O)(=O)C2CC2)n1 [Example 1-14, (3-((2-(((1R,3s,5S)-9-(cyclopropylsulfonyl)-9-azabicyclo[3.3.1]nonan-3-yl)(methyl)amino)-6-methoxypyrimidin-4-yl)amino)-1H-pyrazol-5-yl)methanol]	B (B represents a pKi value between 9 and 10 (Ki between 1 nM and 0.1 nM))	B (B represents a pKi value between 9 and 10 (Ki between 1 nM and 0.1 nM))	A (A represents a pKi value≥10 (Ki≤0.1 nM))	C (C represents a pKi value between 8 and 9 (Ki between 10 nM and 1 nM))	A (A represents a pIC50 value≥7.5 (IC50≤32 nM))	–	–	–	–	–	–
COc1cc(Nc2cc(CO)[nH]n2)nc(N(C)[C@@H]2C[C@H]3CC[C@@H](C2)N3CCC#N)n1 [Example 5, 3-((1R,3s,5S)-3-((4-((5-(hydroxymethyl)-1H-pyrazol-3-yl)amino)-6-methoxypyrimidin-2-yl)(methyl)amino)-8-azabicyclo[3.2.1]octan-8-yl)-propanenitrile]	–	–	–	–	–	–	1 to 10	0.1 to 1	10 to 31.6	200 to 1000	0.1 to 1
COc1cc(Nc2cc(CO)[nH]n2)nc(N(C)[C@@H]2C[C@H]3CCC[C@@H](C2)N3S(=O)(=O)N2CCC2)n1 [Example 1-17, (3-((2-(((1R,3s,5S)-9-(azetidin-1-ylsulfonyl)-9-azabicyclo[3.3.1]nonan-3-yl)(methyl)amino)-6-methoxypyrimidin-4-yl)amino)-1H-pyrazol-5-yl)methanol]	B (B represents a pKi value between 9 and 10 (Ki between 1 nM and 0.1 nM))	B (B represents a pKi value between 9 and 10 (Ki between 1 nM and 0.1 nM))	A (A represents a pKi value≥10 (Ki≤0.1 nM))	C (C represents a pKi value between 8 and 9 (Ki between 10 nM and 1 nM))	A (A represents a pIC50 value≥7.5 (IC50≤32 nM))	–	–	–	–	–	–
